# Patent US20220339135A1, “COMPOSITIONS AND METHODS FOR MODULATING AN INFLAMMATORY RESPONSE” (Enzychem Lifesciences Corporation, priority 2019, published 2022)
# Where two headings read alike, the source gives them in different places.
# Columns and labels:
# [1] = tested on: chemoradiation-induced oral mucositis
# CXCL8 in THP-1 cells = test: MSU crystal-induced CXCL8 in CD36 silenced THP-1 cells, ELISA; assay type: cell-based, human; details: PLAG 10, 100 μg/ml
# Protocol: The specific siRNA of CD36 (sc-29995) and control siRNA (sc-37007) were purchased from Santa Cruz Biotechnology. Cells were transfected with 50 nM of either the targeting or control siRNA using HiPerFect Transfection Reagent (Qiagen, Hilden, Germany) for 24 h. The knockdown efficiency of siRNAs was confirmed by Western blot analysis.
# Transfected THP-1 cells were pre-incubated with PLAG (10, 100 μg/ml) for 1 hour and then stimulated with MSU crystal (400 μg/ml). After 24 hours, cells were centrifuged, and the supernatant was harvested. The concentrations of CXCL8 in the supernatant of THP-1 cells were measured using Human CXCL8 ELISA kit (BD bioscience, New Jersey, USA) according to the manufacturer's instructions. The cytokine levels were estimated by interpolation from a standard curve using an ELISA reader (Molecular Devices, Sunnyvale, USA) at 450 nm.
# [2] = tested on: intracellular ROS in HaCaT cells; test: IMQ-induced intracellular ROS; assay type: cell-based; details: IMQ/PLAG treated cells
# Protocol: HaCaT cells were divided into two groups: 1) IMQ treated group and 2) IMQ/PLAG treated group. For IMQ treated group, cells were stimulated with IMQ (5 μg/ml) for 0, 2.5, 5, 7.5, 10, 15, 30, 60, 120 minutes. For IMQ/PLAG treated group, cells were pre-incubated with PLAG (100 μg/ml) for 1 hour and then stimulated with IMQ (5 μg/ml) for 0, 2.5, 5, 7.5, 10, 15, 30, 60, 120 minutes. (A) To detect ADORA2A on the membrane surface, cells were fixed with 2% paraformaldehyde (Sigma-Aldrich) and were blocked with PBS containing 1% BSA (Gibco, Waltham, Mass., USA). They were incubated with rabbit anti-ADORA2A antibody (Thermo) and Alexa488 conjugated anti-rabbit IgG (Invitrogen) without permeabilization. (B) To detect intracellular ROS, cells were treated with FITC conjugated-CM-H2DCFDA (Invitrogen, Carlsbad, Calif., USA) for 30 min before PLAG treating. For confocal microscopy analysis, cells were washed with PBS and mounted in DAPI-containing fluorescence microscopy mounting medium (Invitrogen). Samples were analyzed with a laser scanning confocal microscope (Carl Zeiss, Oberkochen, Germany).
# [3] = tested on: p47phox in Raw264.7 cells; test: LPS-induced p47phox recruitment; assay type: cell-based; details: LPS/PLAG treatment
# Protocol: Raw264.7 cells were divided into two groups: 1) LPS treated group and 2) LPS/PLAG treated group. For the LPS treated group, cells were treated with 100 μg/ml of DMSO (as solvent control) for 1 hour and treated with LPS (100 ng/ml) for 15, 30, 60, and 120 minutes. For LPS/PLAG treated group, cells were treated with PLAG (100 μg/ml) for 1 hour and treated with LPS (100 ng/ml) for 15, 30, 60, and 120 minutes. Cells were then fixed and stained using rat anti-TLR4/MD2 antibody with Alexa488-conjugated anti-rat IgG secondary antibody. These were analyzed by confocal microscopy. Raw264.7 cells stimulated under the same conditions were fixed, permeabilized, and stained with CM-H2DCFDA, the LYSO-ID® Lysosomal Detection Kit and rabbit anti-p47phox. Confocal microscopy was performed; all data shown represent one experiment performed in triplicate.
# [4] = tested on: Rac1, p47phox in BMDMs and THP-1 cells; test: Rac1 membrane translocation and p47phox phosphorylation; assay type: cell-based
# Protocol: Total cells were lysed on ice for 30 minutes in RIPA buffer composed of 50 mM Tris-HCl (pH 7.4), 150 mM NaCl, 2 mM EDTA, 1% NP-40, 0.5% sodium deoxycholate, 0.1% SDS, 1 mM phenylmethylsulfonyl fluoride (PMSF), 10 mM sodium fluoride, 2 mM sodium pyrophosphate, 10 mM β-glycerophosphate, 10 mM sodium orthovanadate. Membrane-and-cytoplasmic protein fractions of cultured cells were obtained with Mem-PER Plus Membrane Protein Extraction Kit (Thermo Scientific, MA, USA) according to the manufacturer's instructions. The lysates were centrifuged at 13,000 rpm for 20 minutes at 4° C. and protein concentrations were determined using the Bradford assay (Bio-Rad Laboratories). Denatured samples were mixed with a 5×SDS-PAGE loading buffer and heated to 100° C. for 15 min. The samples were separated on the 10% of SDS-PAGE gel and transferred to polyvinylidene difluoride (PVDF) membranes (Merck Millipore Corporation, MA, USA). Membranes were blocked with 5% non-fat milk in PBS (10 mM Tris-HCl, pH7.5, 150 mM NaCl) for 1 h and probed with primary antibodies against ERK1/2, phospho-ERK1/2, P38, phospho-P38, SAPK/JNK, phospho-SAPK/JNK, Na, K-ATPase, α-Tubulin, and β-actin from Cell Signaling Technology (MA, USA), Rac1 from Merck Millipore Corporation), p47phox and phospho-p47phox from Invitrogen, adenosine receptor A1 from Abcam, β arrestin-1 from Santa Cruz Technology for overnight at 4° C. […]
# [5] = Day 9, ChemoRT + PLAG 250 mg/kg
smiles,measurement,setting,value
"CCCCC/C=C\C/C=C\CCCCCCCC(=O)OC(COC(C)=O)COC(=O)CCCCCCCCCCCCCCC (racemic) [PLAG, 1-palmitoyl-2-linoleoyl-3-acetylglycerol]",body weight Day 9,[1]; ChemoRT + PLAG 100 mg/kg,23.98 ± 2.80 g
same,oral mucosa epithelial thickness,[1]; ChemoRT + PLAG 100 mg/kg,58.06±24.97 μm
same,ulceration area percentage,[1]; ChemoRT + PLAG 100 mg/kg,29.32±5.40%
same,CXCL2 mRNA expression in tongues (relative band intensity),[1]; ChemoRT + PLAG 250 mg/kg,0.23±0.48 AU
same,IL-6 in tongue tissue extracts,[1]; ChemoRT + PLAG 250 mg/kg,8.13 ± 1.19 pg/mg
same,IL-6 mRNA expression in tongues (relative band intensity),[1]; ChemoRT + PLAG 250 mg/kg,1.34±1.06 AU
same,MIP-2 in tongue tissue extracts,[1]; ChemoRT + PLAG 250 mg/kg,2.69 ± 0.38 pg/mg
same,body weight Day 9,[1]; ChemoRT + PLAG 250 mg/kg,26.46 ± 1.68 g
same,oral mucosa epithelial thickness,[1]; ChemoRT + PLAG 250 mg/kg,85.81±12.24 μm
same,ulceration area percentage,[1]; ChemoRT + PLAG 250 mg/kg,1.45±2.36%
same,P-MLKL relative band intensity in tongue lysates,[1]; ChemoRT+PLAG,3.67±2.56 AU
same,P-RIPK1 relative band intensity in tongue lysates,[1]; ChemoRT+PLAG,0.61±0.45 AU
same,P-RIPK3 relative band intensity in tongue lysates,[1]; ChemoRT+PLAG,1.27±0.83 AU
same,body weight Day 0,[1]; ChemoRT+PLAG,25.78 ± 1.04 g
same,neutrophil infiltration in the tongues (IHC NIMP-R14),[1]; ChemoRT+PLAG,not observed
same,serum IL-6,[1]; [5],205.75 ± 30.41 pg/mL
same,serum MIP-2,[1]; [5],4.42 ± 4.04 pg/mL
same,HMGB1 localization in tongue (IHC),[1]; PLAG-treated mice,remained in the nucleus
same,body weight Day 9,"[1]; mouse, in vivo",25.66 ± 0.70 g
same,decrease of CXCL8 induced by MSU crystal,CXCL8 in THP-1 cells,still shown
same,ROS formation starts,[2],2.5 min
same,ROS returns to homeostatic levels,[2],10 min
same,p47phox recruitment initiated,[3],15 min
same,return to homeostatic levels of p47phox,[3],60 min
same,gemcitabine-induced p47phox phosphorylation,[4]; dose-dependent,effectively inhibited
same,translocation of Rac1 from the cytosol to the membrane,[4]; gemcitabine-stimulated THP-1 cells,significantly inhibited
